Each block holds one compound with its values, some of them ahead of it. Active and inactive are the calls of the source. The rule behind the calls is not given here.
Legend:
[1] = biological target: T1, Solute carrier family 2, facilitated glucose transporter member 4 (Rattus norvegicus) (UniProt P19357); experiment: Induction of GLUT4 translocation in rat L6-GLUT4myc differentiated myotube cells at 3 uM after 20 mins by chemiluminescent method relative to 30 uM 2-(4-(4-(2-methoxyphenyl)-6,7-dihydro-5H-cyclopenta[d]pyridazin-1-ylamino)phenyl)acetamide
T1 sequence (whole entry): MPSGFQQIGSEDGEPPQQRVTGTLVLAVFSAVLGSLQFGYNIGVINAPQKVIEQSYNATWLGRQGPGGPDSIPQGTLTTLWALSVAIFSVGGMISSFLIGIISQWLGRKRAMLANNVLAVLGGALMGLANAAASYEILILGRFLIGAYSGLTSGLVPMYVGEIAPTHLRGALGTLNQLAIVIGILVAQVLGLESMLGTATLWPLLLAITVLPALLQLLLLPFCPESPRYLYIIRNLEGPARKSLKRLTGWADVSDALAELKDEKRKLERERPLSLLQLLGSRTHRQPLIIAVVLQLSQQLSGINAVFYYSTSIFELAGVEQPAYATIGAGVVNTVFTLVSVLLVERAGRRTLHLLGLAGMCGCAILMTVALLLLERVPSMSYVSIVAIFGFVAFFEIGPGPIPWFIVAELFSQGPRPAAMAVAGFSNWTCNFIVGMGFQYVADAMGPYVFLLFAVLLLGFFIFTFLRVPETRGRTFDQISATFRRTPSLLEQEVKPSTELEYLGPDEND

[2] = biological target: T1, Solute carrier family 2, facilitated glucose transporter member 4 (Rattus norvegicus); experiment: Induction of GLUT4 translocation in rat L6-GLUT4myc differentiated myotube cells at 30 uM after 20 mins by chemiluminescent method relative to 30 uM 2-(4-(4-phenylphthalazin-1-ylamino)phenyl)acetamide
[3] = 1-octanol/PBS distribution co-efficient, log D of the compound at pH 7.4; format: physicochemical
[4] = Stability of the compound in mouse liver microsomes assessed as parent compound remaining after 30 mins relative to control; format: ADME, Microsome; conditions: read-out: Stability
[5] = biological target: T1, Solute carrier family 2, facilitated glucose transporter member 4 (Rattus norvegicus); experiment: Induction of GLUT4 translocation in rat L6-GLUT4myc differentiated myotube cells at 3 uM after 20 mins by chemiluminescent method relative to 2-(4-(4-(2-methoxyphenyl)phthalazin-1-ylamino)phenyl)acetamide
[6] = biological target: T1, Solute carrier family 2, facilitated glucose transporter member 4 (Rattus norvegicus); experiment: Potency index, ratio of EC50 for 2-(4-(4-(2-methoxyphenyl)-6,7-dihydro-5H-cyclopenta[d]pyridazin-1-ylamino)phenyl)acetamide EC50 to EC50 for test compound for GLUT4 translocation activity in L6-GLUT4myc differentiated myotube cells
[7] = system: Mus musculus; experiment: Antidiabetic activity in db/db mouse assessed as reduction in fasting plasma glucose level at 3 to 30 mg/kg, po measured up to 4 hrs; format: functional, organism-based
[8] = Cmax in db/db mouse plasma at 30 mg/kg, po measured up to 4 hrs; format: ADME, organism-based; parameters: dose 30 mg/kg, route oral
[9] = system: Mus musculus; experiment: Antidiabetic activity in db/db mouse assessed as reduction in fasting plasma glucose AUC at 10 mg/kg, po measured up to 4 hrs; format: functional, organism-based; parameters: dose 10 mg/kg, time < 4 hr
[10] = system: Mus musculus; experiment: Antidiabetic activity in db/db mouse assessed as reduction in fasting plasma glucose level at 30 mg/kg, po measured up to 4 hrs; format: functional
[11] = Cmax in db/db mouse plasma at 10 mg/kg, po measured up to 4 hrs; format: ADME, organism-based; parameters: dose 10 mg/kg, route oral
[12] = AUC (0 to 4 hrs) in db/db mouse plasma at 3 to 30 mg/kg, po measured up to 4 hrs; format: ADME, organism-based; conditions: in vivo
[13] = AUC (0 to 4 hrs) in db/db mouse plasma at 10 mg/kg, po measured up to 4 hrs; format: ADME, organism-based; parameters: dose 10 mg/kg, time < 4 hr, route oral
[14] = system: Mus musculus; experiment: Antidiabetic activity in db/db mouse assessed as reduction in fasting plasma glucose level at 3 mg/kg, po measured up to 4 hrs; format: functional
[15] = system: Mus musculus; experiment: Antidiabetic activity in db/db mouse assessed as reduction in fasting plasma glucose level at 10 mg/kg, po measured up to 4 hrs; format: functional
[16] = Cmax in db/db mouse plasma at 3 mg/kg, po measured up to 4 hrs; format: ADME, organism-based; parameters: dose 3 mg/kg, route oral
[17] = AUC (0 to 4 hrs) in db/db mouse plasma at 30 mg/kg, po measured up to 4 hrs; format: ADME, organism-based; parameters: time < 4 hr, dose 30 mg/kg, route oral
[18] = system: Mus musculus; experiment: Antidiabetic activity in db/db mouse assessed as reduction in fasting plasma glucose AUC at 3 mg/kg, po measured up to 4 hrs; format: functional, organism-based; parameters: dose 3 mg/kg, time < 4 hr
[19] = AUC (0 to 4 hrs) in db/db mouse plasma at 3 mg/kg, po measured up to 4 hrs; format: ADME, organism-based; parameters: dose 3 mg/kg, time < 4 hr, route oral
[20] = system: Mus musculus; experiment: Antidiabetic activity in db/db mouse assessed as reduction in fasting plasma glucose AUC at 30 mg/kg, po measured up to 4 hrs; format: functional, organism-based; parameters: dose 30 mg/kg, time < 4 hr
[21] = Cmax in db/db mouse plasma at 3 to 30 mg/kg, po measured up to 4 hrs; format: ADME, organism-based; conditions: in vivo

SMILES: CNC(=O)Cc1ccc(Nc2nnc(-c3ccccc3OC)c3c2CCC3)cc1
- fold change (FC) [1]: 0.08

SMILES: COc1ccccc1-c1nnc(Nc2ccc(CC(=O)N(C)C)cc2)c2c1CCC2
- fold change (FC) [1]: 0.09

SMILES: COc1ccc(-c2nnc(Nc3ccc(CC(N)=O)cc3)c3ccccc23)cc1
- fold change (FC) [2]: inactive

SMILES: COc1ccccc1-c1nnc(Nc2ccc(CC(N)=O)cc2)c2c1CCC2
- logD [3]: 2.3
- fold change (FC) [5]: 2
- remaining at 0.5 h [4]: 90%
- fold change (FC) [2]: 4.7

SMILES: COc1ccccc1-c1nnc(Nc2ccc(C(C)(C)C(N)=O)cc2)c2c1CCC2
- fold change (FC) [1]: 0.3

SMILES: COc1ccccc1-c1nnc(Nc2ccc(CS(N)(=O)=O)cc2)c2c1CCC2
- fold change (FC) [1]: 0.09

SMILES: COc1ccccc1-c1nnc(Nc2ccc(CCC(N)=O)cc2)c2c1CCC2
- fold change (FC) [1]: inactive

SMILES: Cc1cccc(-c2nnc(Nc3ccc(CC(N)=O)cc3)c3ccccc23)c1
- fold change (FC) [2]: 1.3

SMILES: COc1ccccc1-c1nnc(Nc2ccc(C3(C(N)=O)CC3)cc2)c2c1CCC2
- fold change (FC) [1]: 0.37

SMILES: COc1ccccc1-c1nnc(Nc2ccc(CC(N)=O)cc2)c2c1CCCC2
- fold change (FC) [2]: 0.9

SMILES: CCc1c(Nc2ccc(CC(N)=O)cc2)nnc(-c2ccccc2OC)c1CC
- fold change (FC) [2]: inactive

SMILES: COc1cccc(-c2nnc(Nc3ccc(CC(N)=O)cc3)c3ccccc23)c1
- fold change (FC) [2]: 1

SMILES: COc1ccccc1-c1nnc(Nc2cccc(CC(N)=O)c2)c2c1CCC2
- fold change (FC) [1]: 0.04

SMILES: COc1ccccc1-c1nnc(Nc2ccc(C(N)=O)cc2)c2c1CCC2
- fold change (FC) [1]: 0.1

SMILES: COc1ccccc1-c1nnc(Nc2ccc(CC(N)=O)c(F)c2)c2c1CCC2
- fold change (FC) [1]: 0.56

SMILES: COc1ccccc1-c1nnc(Nc2ccc(CC(N)=O)c(C)c2)c2c1CCC2
- fold change (FC) [1]: 0.36

Further lines, with some results ahead:

- fold change (FC) [1]: 0.67
SMILES: COc1ccccc1-c1nnc(Nc2ccc(CC(N)=O)cc2)c2sccc12

- fold change (FC) [2]: 1.7
SMILES: CCc1ccccc1-c1nnc(Nc2ccc(CC(N)=O)cc2)c2ccccc12

- logD [3]: 2.9
- remaining at 0.5 h [4]: 2%
SMILES: CC(C)(C)NC(=O)NCCOCCOc1ccccc1-c1nnc(Nc2ccc(CC(N)=O)cc2F)c2ccsc12

- fold change (FC) [2]: 3.7
SMILES: COc1ccccc1-c1nnc(Nc2ccc(CC(N)=O)cc2)c(C)c1C

- logD [3]: 3.2
- remaining at 0.5 h [4]: 15%
SMILES: CC(C)(C)OC(=O)NCCOCCOc1ccccc1-c1nnc(Nc2ccc(CC(N)=O)cc2F)c2ccsc12

- fold change (FC) [1]: 0.97
SMILES: COc1ccccc1-c1nnc(Nc2ccc(CC(N)=O)cc2)c2ccsc12

- fold change (FC) [2]: 1.6
SMILES: Cc1ccccc1-c1nnc(Nc2ccc(CC(N)=O)cc2)c2ccccc12

- fold change (FC) [1]: 0.09
SMILES: COc1ccccc1-c1nnc(Nc2ccc(CC(N)=O)cc2O)c2c1CCC2

- fold change (FC) [1]: 0.46
SMILES: COc1ccccc1-c1nnc(Nc2ccc(CC(N)=O)cc2)c2occc12

- logD [3]: 2.6
- remaining at 0.5 h [4]: 79%
SMILES: NC(=O)Cc1ccc(Nc2nnc(-c3ccccc3OCc3cscn3)c3sccc23)c(F)c1

- fold change (FC) [1]: 0.33
SMILES: COc1ccccc1-c1nnc(Nc2ccc(CC(N)=O)cc2)c2ccoc12

- fold change (FC) [1]: inactive
SMILES: COc1ccccc1-c1nnc(Nc2ccc(CC(N)=O)cc2)c2oc(C)cc12

- logD [3]: 2.6
- remaining at 0.5 h [4]: 92%
- Ratio EC50 [6]: 7
SMILES: COc1ccccc1-c1nnc(Nc2ccc(CC(N)=O)cc2F)c2ccsc12

- logD [3]: 1.8
- remaining at 0.5 h [4]: > 100%
SMILES: NC(=O)Cc1ccc(Nc2nnc(-c3ccccc3OCC3COCCO3)c3sccc23)c(F)c1 (stereo unspecified)

- fold change (FC) [1]: 0.85
SMILES: COc1ccccc1-c1nnc(Nc2ccc(CC(N)=O)cc2F)c2c1CCC2

- logD [3]: 2.9
- remaining at 0.5 h [4]: 19%
SMILES: NC(=O)Cc1ccc(Nc2nnc(-c3ccccc3OCc3ccccn3)c3sccc23)c(F)c1

- logD [3]: 1.8
- remaining at 0.5 h [4]: 82%
SMILES: COCCOCCOc1ccccc1-c1nnc(Nc2ccc(CC(N)=O)cc2F)c2ccsc12

- Cmax [8]: 4.38 µM
- Cmax [11]: 4 µM
- logD [3]: 2.1
- AUC [12]: Dose-dependent effect
- AUC(0-t) at 4 h [13]: 10.6 µM·h
- Cmax [16]: 3.38 µM
- AUC(0-t) at 4 h [17]: 12.6 µM·h
- remaining at 0.5 h [4]: 66%
- AUC(0-t) at 4 h [19]: 9.01 µM·h
- Cmax [21]: Dose-dependent effect
SMILES: COCCOc1ccccc1-c1nnc(Nc2ccc(CC(N)=O)cc2F)c2ccsc12
- Activity [7]: Dose-dependent effect
- AUC [9]: 1160 mg/dl.hr
- Emax [10]: 435 mg/dL
- Emax [14]: 220 mg/dL
- Emax [15]: 393 mg/dL
- AUC [18]: 644 mg/dl.hr
- AUC [20]: 1210 mg/dl.hr

- fold change (FC) [1]: 0.52
SMILES: COc1ccccc1-c1nnc(Nc2ccc(CC(N)=O)cc2C)c2c1CCC2

- fold change (FC) [1]: 0.13
SMILES: COc1cc(CC(N)=O)ccc1Nc1nnc(-c2ccccc2OC)c2c1CCC2

- fold change (FC) [1]: 0.45
SMILES: COc1ccccc1-c1nnc(Nc2ccc(CC(N)=O)cc2Cl)c2c1CCC2

- fold change (FC) [1]: 0.12
SMILES: COc1ccccc1-c1nnc(Nc2ccc(CC(N)=O)cc2C(F)(F)F)c2c1CCC2

- fold change (FC) [2]: 2.7
SMILES: COc1ccccc1-c1nnc(Nc2ccc(CC(N)=O)cc2)c2ccccc12

From ChEMBL document CHEMBL4340562, “Discovery of novel pyridazine derivatives as glucose transporter type 4 (GLUT4) translocation activators” (Bioorg Med Chem Lett, 2019)
